Series [1] in a line: Plasma pharmacokinetics after single intravenous and oral administration. It is filed as in vivo, male Swiss Albino mice.
Series [2] deals with human CAG-heparanase myeloma cells. Description: Systemic SCID-CAG-heparanase multiple myeloma model. It is filed as in vivo, Male SCID mice. Particulars: for Human serum κ / IL-6 / Serum TRAcP 5b: osmotic pump, 4 weeks. As to the method: The Table 2 below provides an analysis of the systemic SCID-CAG-heparanase model treated with increasing doses of Compound No 1 according to the present invention.
Table 2: Analyses of the Systemic SCID-CAG-Heparanase Model Treated with Increasing Doses of Compound No 1
Male SCID mice were injected via tail vein with 1.7×10^6 CAG-hpse cells and tumors allowed to establish over 2 weeks. Groups were randomized according to serum human kappa levels (n=15/group). Treatments were initiated at 2 weeks and continued for 4 weeks. Mice were treated with either saline or 0.3, 3.0, or 30 mg/kg/day of Compound No 1 peptide delivered by osmotic pumps. Pumps were replaced after 2 weeks and fresh peptide and pumps installed. *p<0.05 vs saline.

The target of series [3] is Recombinant latent TGF-beta incubated with TSP1 (Homo sapiens, UniProt P07996). In words: TSP1 activation of recombinant latent TGF-beta, ELISA specific for active TGF-beta. Format: biochemical. To be noted: latent TGF-beta 500 pM, TSP1 48 nM, compounds 1-100 pM; read-out: Activity (IC 50). As to the method: The assay for the IC 50 (Activity) data in Table 1 was as follows: Recombinant latent TGF-beta (500 pM) is incubated with TSP1 (48 nM) in the absence or presence of increasing concentrations of the identified compounds (1-100 pM). TGF-beta activity in the samples was measured using an ELISA specific for active TGF-beta (R&D Systems). IC50 values were calculated from the curves.
Recombinant latent TGF-beta incubated with TSP1, sequence (P07996 19-1170): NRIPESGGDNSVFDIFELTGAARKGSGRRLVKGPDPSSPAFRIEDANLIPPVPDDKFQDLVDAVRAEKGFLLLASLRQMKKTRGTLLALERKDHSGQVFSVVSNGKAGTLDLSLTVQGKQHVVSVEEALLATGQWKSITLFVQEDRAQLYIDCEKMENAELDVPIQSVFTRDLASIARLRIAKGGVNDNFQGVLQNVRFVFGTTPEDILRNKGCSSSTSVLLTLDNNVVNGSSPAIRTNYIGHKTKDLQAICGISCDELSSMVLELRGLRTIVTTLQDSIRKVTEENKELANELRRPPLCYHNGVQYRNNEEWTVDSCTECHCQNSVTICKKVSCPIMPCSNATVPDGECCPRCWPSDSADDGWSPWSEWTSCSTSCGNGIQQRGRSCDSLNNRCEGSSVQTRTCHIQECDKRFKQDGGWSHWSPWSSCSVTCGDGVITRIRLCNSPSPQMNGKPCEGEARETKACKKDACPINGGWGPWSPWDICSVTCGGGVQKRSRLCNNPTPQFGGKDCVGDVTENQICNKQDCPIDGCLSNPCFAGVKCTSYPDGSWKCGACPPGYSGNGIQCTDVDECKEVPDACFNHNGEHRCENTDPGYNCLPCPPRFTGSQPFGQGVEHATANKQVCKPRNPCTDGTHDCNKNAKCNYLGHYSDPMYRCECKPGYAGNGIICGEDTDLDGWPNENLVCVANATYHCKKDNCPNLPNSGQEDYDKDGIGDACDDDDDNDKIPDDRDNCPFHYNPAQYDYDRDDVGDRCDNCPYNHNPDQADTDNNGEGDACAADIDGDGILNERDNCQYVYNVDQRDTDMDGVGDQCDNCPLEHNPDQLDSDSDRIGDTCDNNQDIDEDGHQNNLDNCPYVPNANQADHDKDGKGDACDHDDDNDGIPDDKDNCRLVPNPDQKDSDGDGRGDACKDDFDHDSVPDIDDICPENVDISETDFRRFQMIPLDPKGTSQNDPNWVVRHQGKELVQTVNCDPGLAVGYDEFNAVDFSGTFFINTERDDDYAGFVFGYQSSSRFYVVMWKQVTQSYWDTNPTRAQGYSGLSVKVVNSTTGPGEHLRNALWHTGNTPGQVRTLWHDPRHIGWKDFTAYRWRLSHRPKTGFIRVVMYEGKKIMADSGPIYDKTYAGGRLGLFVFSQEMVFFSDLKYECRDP
Background: In an ELISA, binding on a coated surface is turned into a signal by an enzyme label.

Series [4] can be described thus: Plasma stability half-life. It is filed as in vitro ADME. An excerpt: Peptides comprising the amino acid sequence LSKL, including the tetrapeptide LSKL, for inhibiting TGF-β activity and the use of these peptides and certain functional derivatives thereof for the treatment of kidney disease are described in U.S. Pat. No. 6,384,189 and U.S. Pat. No. 6,458,767. It is desirable to employ small molecules such as, e.g., LSKL because they are easier to synthesize and, thus, less costly. […] Accordingly, there is a need for small molecules which affect the activation of TGF-β and which also have an extended plasma stability half-life.

The next series concerns TSP1-TGF-β activation. Particulars: cited from earlier work.
Setting [5] is: male, Swiss Albino, mouse, iv, 1 mg/kg.
Where [6] appears, read: male, Swiss Albino, mouse, po, 3 mg/kg.

Marks after values point to notes of the source that are not given here. Residues, ends and D or L forms follow the SMILES beside them.

A word on the AUC(0-inf): it is the area under the concentration-time curve extrapolated to infinity. A high value points to high exposure. The term AUC(0-t) denotes the area under the concentration-time curve up to a stated or last time point. One may read the half-life as the time in which the quantity being followed falls by half. A high value points to slow decline. In general, bioavailability refers to the share of a dose that reaches the circulation, judged against a reference dose that is usually intravenous. The low end stands for little systemic uptake, the high end for much systemic uptake. One may read the Cmax as the peak of the concentration-time curve. What is called Tmax is the time from dosing to the highest level. For the compound `CC(=O)N[C@@H](CO)C(=O)N[C@@H](CCCCN)C(=O)N[C@@H](CC(C)C)C(N)=O` [Compound 1] (Ac-Ser-Lys-Leu-NH2), the Co in series [1] (i.v., 1 mg/kg) was 1025.73 ng/mL. In series [1] (setting [5]), the AUC(0-inf) came out at 1380 ng·h/mL, the AUC(0-t) turned out to be 1210 ng·h/mL, the clearance was found to be 12.1 mL/min/kg and the half-life was 637 min. The Vd in series [1] (male, Swiss Albino, mouse, iv, 1 mg/kg, read-out: Vss) came to 6.31 L/kg. Moreover, the bioavailability in series [1] (male, Swiss Albino, mouse, oral 3 mg/kg vs i.v. 1 mg/kg) came to 24%. Also, in series [1] (setting [6]), the AUC(0-inf) is 1070 ng·h/mL, the AUC(0-t) was determined as 875 ng·h/mL, the Cmax turned out to be 208 ng/mL and the time to peak (Tmax) amounted to 30 min. Moreover, in series [2] (0.3 mg/kg/day), the “Human serum κ” value worked out at 5134 ± 696 ng/mL, the IL-6 is 70.2 ± 4.7 pg/mL and the “Serum TRAcP 5b” value was 3.6 +/− 0.28 U/L. Also, in series [2] (3.0 mg/kg/day), the “Human serum κ” value is reported as 3465 +/− 422* ng/ml, the IL-6 is 40.0 +/− 4.2* pg/ml and the “Serum TRAcP 5b” value is listed as 2.8 +/− 0.15* U/L. Besides, the “tibial bone loss (FIG. 1)” value in series [2] (30 mg/kg dose, SCID/CAG-hpse MM model) is “reducing tibial bone loss”. Further, in series [2] (30 mg/kg/day), the “TRAP^+ OC/mm BS” value is 1.0 +/− 0.2*, the “p-Smad 2 IHC in bone marrow” value is reported as 2390 +/− 472* arbitrary units, the “Human serum κ” value is listed as 2593 +/− 443* ng/ml and the IL-6 is given as 31.8 +/− 4.0* pg/ml. Besides, the “Serum TRAcP 5b” value in series [2] (30 mg/kg/day) was 2.5 +/− 0.13* U/L. Also, in series [2] (30 mg/kg/day, n = 4), the “μCT (tibia) BV/TV” value is reported as 0.13 +/− 0.01*, the “μCT (tibia) TbN” value is recorded as 4.03 +/− 0.28* and the “μCT (tibia) TbSp” value was 0.25 +/− 0.02*. The IC50 in series [3] fell in the range of 0.001 to 0.01 nM.

In the case of `CC(=O)N[C@H](C(=O)N[C@@H](CCCCN)C(=O)N[C@@H](CC(C)C)C(N)=O)C(C)O` (some centres unmarked) [Compound 2] (HELM PEPTIDE1{[ac].[CC(O)[C@H](N[*:1])C(=O)[*:2]].K.L.[am]}$$$$V2.0), the IC50 in series [3] lay within 0.05 to 0.1 nM.

Take `CC(=O)N[C@@H](CO)C(=O)N[C@@H](CCCCN)C(=O)N(C)[C@@H](CC(C)C)C(N)=O` [Compound 10] (HELM PEPTIDE1{[ac].S.K.[meL].[am]}$$$$V2.0): in series [3], the IC50 lay within 0.1 to 0.5 nM.

For `CNC(=O)[C@H](CC(C)C)NC(=O)[C@H](CCCCN)NC(=O)[C@H](CO)NC(C)=O` [Compound 13] (HELM PEPTIDE1{[ac].S.K.L.[CN[*:1]]}$$$$V2.0), the IC50 in series [3] lay within 0.05 to 0.1 nM.

In the case of `CNC(=O)[C@H](CC(C)C)NC(=O)[C@@H](CCCCN)NC(=O)[C@@H](NC(C)=O)C(C)O` (some centres unmarked) [Compound 14] (HELM PEPTIDE1{[ac].[CC(O)[C@H](N[*:1])C(=O)[*:2]].[dK].L.[CN[*:1]]}$$$$V2.0), the IC50 in series [3] lay in the range of 0.001 to 0.01 nM.

Take `CC(=O)N[C@@H](CO)C(=O)N[C@@H](CCCCN(C)C)C(=O)N[C@@H](CC(C)C)C(N)=O` [Compound 22] (HELM PEPTIDE1{[ac].S.[CN(C)CCCC[C@H](N[*:1])C(=O)[*:2]].L.[am]}$$$$V2.0): the IC50 in series [3] lay within 0.1 to 0.5 nM.

Turning to `CC(=O)N[C@@H](CO)C(=O)N[C@@H](CCCCN)C(=O)N[C@@H](CC1CC1)C(N)=O` [Compound 37] (HELM PEPTIDE1{[ac].S.K.[O=C([C@H](CC1CC1)N[*:1])[*:2]].[am]}$$$$V2.0), the IC50 in series [3] fell in the range of 0.05 to 0.1 nM.

`CC(=O)N[C@H](CO)C(=O)N[C@@H](CCCCN)C(=O)N[C@@H](CC(C)C)C(N)=O` [Compound 94] (HELM PEPTIDE1{[ac].[dS].K.L.[am]}$$$$V2.0): the IC50 in series [3] was 0.1 to 0.5 nM.

With `CC(=O)N[C@@H](CO)C(=O)N[C@H](CCCCN)C(=O)N[C@@H](CC(C)C)C(N)=O` [Compound 95] (HELM PEPTIDE1{[ac].S.[dK].L.[am]}$$$$V2.0), the IC50 in series [3] fell in the range of 0.001 to 0.01 nM.

As to `CC(=O)N[C@@H](CO)C(=O)N[C@@H](CCCCN)C(=O)N[C@H](CC(C)C)C(N)=O` [Compound 96] (HELM PEPTIDE1{[ac].S.K.[dL].[am]}$$$$V2.0), the IC50 in series [3] was in the range of 0.05 to 0.1 nM.

With `CC(=O)N[C@@H](CO)C(=O)N[C@@H](CCCCN)C(=O)N[C@@H](CC(C)C)C(=O)N(C)C` [Compound 97] (HELM PEPTIDE1{[ac].S.K.L.[CN(C)[*:1]]}$$$$V2.0), the IC50 in series [3] was in the range of 0.1 to 0.5 nM.

Turning to `CNCCCC[C@H](NC(=O)[C@H](CO)NC(C)=O)C(=O)N[C@@H](CC(C)C)C(N)=O` [Compound 98] (HELM PEPTIDE1{[ac].S.[CNCCCC[C@H](N[*:1])C(=O)[*:2]].L.[am]}$$$$V2.0), the IC50 in series [3] fell in the range of 0.1 to 0.5 nM.

In the case of `CC(=O)NCCCC[C@H](NC(=O)[C@H](CO)NC(C)=O)C(=O)N[C@@H](CC(C)C)C(N)=O` [Compound 99] (Ac-Ser-Lys(Ac)-Leu-NH2), in series [3], the IC50 fell in the range of 0.1 to 0.5 nM.

With `COC[C@H](NC(C)=O)C(=O)N[C@@H](CCCCN)C(=O)N[C@@H](CC(C)C)C(N)=O` [Compound 100] (Ac-Ser(Me)-Lys-Leu-NH2), the IC50 in series [3] is 0.1 to 0.5 nM.

Consider `CCC(=O)N[C@@H](CO)C(=O)N[C@@H](CCCCN)C(=O)N[C@@H](CC(C)C)C(N)=O` [Compound 101] (HELM PEPTIDE1{[CCC(=O)[*:2]].S.K.L.[am]}$$$$V2.0), for which, in series [3], the IC50 was in the range of 0.1 to 0.5 nM.

Take `CC(C)C[C@H](NC(=O)[C@H](CCCCN)NC(=O)[C@H](CO)NC(=O)[C@@H](N)CC(C)C)C(=O)O` [LSKL, leucine-serine-lysine-leucine] (H-LSKL-OH; N-terminus and C-terminus assumed): in series [4], the half-life amounted to 2.1 min. Besides, in the series on TSP1-TGF-β activation (after 15 weeks of 30 mg/kg i.p., 3 times weekly), the necropsy findings entry was “no inflammation, no tumors in all major organs, and no impairment of wound healing”. In addition, the “Smad signaling and dermal wound healing” value with TSP1-TGF-β activation (systemic administration, diabetic mice) is recorded as “did not reduce Smad signaling or impair dermal wound healing”.
